Our source for the EC50 values is patent publication US9802927B2, “Oxadiazine compounds and methods of use thereof” (Denali Therapeutics, Inc., priority 2015, dated 2017).

The assay relates to Aβ42. The assay can be described thus: In vitro cell screening assay in H4 cells expressing human APP751: Aβ42 by sandwich ELISA. Type of assay: cell-based. Conditions: compounds 0.003-10 μM, incubated overnight (16-18 h), sandwich ELISA of supernatant. Here is the method: Human neuroglioma H4 cells were transfected with a pcDNA3.1 plasmid expressing human wild type APP751 cDNA and a stable cell line was generated using G418 selection. Cells were plated at 15,000 cells/well in Costar 96-well plates and placed at 37° C. and 5% CO2. Six hours after plating, cells were washed three times with Pro293™ chemically defined medium, followed by addition of compounds (0.003-10 μM, final DMSO concentration of 0.33%). Plates were incubated overnight (16-18 h) and supernatant was removed for quantification of Aβ peptides by sandwich ELISA. Cytotoxicity was evaluated using Cell-Titer 96W AQueous One Solution Cell Proliferation Assay according to the manufacturer's protocol.
Aβ peptide levels were quantified by sandwich ELISA. 96-well plates were coated with C-terminal specific Aβ antibodies recognizing either Aβ37, Aβ38, Aβ40, Aβ42, Aβ43 or a N-terminal specific Aβ antibody to detect Aβ 1-x. Plates were then blocked overnight at 4° C. with 1% bovine serum albumin (BSA) in PBS-T. Plates were washed and 100 μl of cultured cell supernatant or synthetic Aβ peptide standards and a detection antibody (4G8-HRP) were applied to the blocked plate and incubated overnight at 4° C. The next day, wells were washed before the addition of detection substrate (TMB peroxidase). Plates were then read for absorbance at 450 nm on a Molecular Devices SpectraMax M5e Microplate Reader.
Compound-treated samples were normalized to samples treated with DMSO alone (no inhibition) and to samples treated with DAPT. EC50 values were calculated from values reported as percent of DMSO controls using nonlinear regression, based on a sigmoidal dose response (variable slope) model. GraphPAD software from Prism used for calculation.

As for `COc1nc(C2=NOCC(c3cn(C)c4cc(S(C)(=O)=O)ccc34)N2)ccc1-n1cnc(C)c1` (single isomer, unassigned; (-)) [Example 256A, (−)-3-(6-methoxy-5-(4-methyl-1H-imidazol-1-yl)pyridin-2-yl)-5-(1-methyl-6-(methylsulfonyl)-1H-indol-3-yl)-5,6-dihydro-4H-1,2,4-oxadiazine], the EC50 is 2590 nM. Turning to `COc1ccc(C2CON=C(c3ccc(-n4cnc(C)c4)c(OC)n3)N2)cc1` (single isomer, unassigned; (+)) [Example 54B, (+)-3-(6-methoxy-5-(4-methyl-1H-imidazol-1-yl)pyridin-2-yl)-5-(4-methoxyphenyl)-5,6-dihydro-4H-1,2,4-oxadiazine], the 50% effective concentration (EC50) came out at 97.4 nM. `COc1nc(C2=NOCC(c3ccccc3C)N2)ccc1-n1cnc(C)c1` (single isomer, unassigned; (-)) [Example 131B, (−)-3-(6-methoxy-5-(4-methyl-1H-imidazol-1-yl)pyridin-2-yl)-5-(o-tolyl)-5,6-dihydro-4H-1,2,4-oxadiazine]: the half-maximal effective concentration (EC50) was > 3000 nM. Same read-out and setting: next, `COc1nc(C2=NOCC(c3cc4ccc(Cl)cc4o3)N2)ccc1-n1cnc(C)c1` (single isomer, unassigned; (+)) [Example 78B, (+)-5-(6-chlorobenzofuran-2-yl)-3-(6-methoxy-5-(4-methyl-1H-imidazol-1-yl)pyridin-2-yl)-5,6-dihydro-4H-1,2,4-oxadiazine]: 8.9 nM; `COc1nc(C2=NOCC(c3ccc(OC(F)(F)F)cc3)N2)ccc1-n1cnc(C)c1` (single isomer, unassigned; (+)) [Example 70B, (+)-3-(6-methoxy-5-(4-methyl-1H-imidazol-1-yl)pyridin-2-yl)-5-(4-(trifluoromethoxy)phenyl)-5,6-dihydro-4H-1,2,4-oxadiazine]: 21.8 nM. `COc1nc(C2=NOCC(c3cn(C)c4cc(F)c(C(F)(F)F)cc34)N2)ccc1-n1cnc(C)c1` (single isomer, unassigned; (+)) [Example 104B, (+)-5-(6-fluoro-1-methyl-5-(trifluoromethyl)-1H-indol-3-yl)-3-(6-methoxy-5-(4-methyl-1H-imidazol-1-yl)pyridin-2-yl)-5,6-dihydro-4H-1,2,4-oxadiazine]: the 50% effective concentration (EC50) turned out to be 4.6 nM. `COc1nc(C2=NOCC(C3CCC(F)(F)CC3)N2)ccc1-n1cnc(C)c1` (single isomer, unassigned; (+)) [Example 139B, (+)-5-(4,4-difluorocyclohexyl)-3-(6-methoxy-5-(4-methyl-1H-imidazol-1-yl)pyridin-2-yl)-5,6-dihydro-4H-1,2,4-oxadiazine] returned an EC50 (Homo sapiens) of 201 nM. `COc1nc(C2=NOCC(c3cn(C)c4cccc(F)c34)N2)ccc1-n1cnc(C)c1` (single isomer, unassigned; (-)) [Example 191B, (−)-5-(4-fluoro-1-methyl-1H-indol-3-yl)-3-(6-methoxy-5-(4-methyl-1H-imidazol-1-yl)pyridin-2-yl)-5,6-dihydro-4H-1,2,4-oxadiazine] displayed an EC50 of 83.2 nM.

In the case of `COc1nc(C2=NOCC(C3CCOCC3)N2)ccc1-n1cnc(C)c1` (single isomer, unassigned; (+)) [Example 143B, (+)-3-(6-methoxy-5-(4-methyl-1H-imidazol-1-yl)pyridin-2-yl)-5-(tetrahydro-2H-pyran-4-yl)-5,6-dihydro-4H-1,2,4-oxadiazine], a half-maximal effect (EC50) was put at 2460 nM. Against the preceding compound, the EC50 is about 30-fold higher.

Regarding `COc1nc(C2=NOCC(c3cc4ccc(F)cc4o3)N2)ccc1-n1cnc(C)c1` (single isomer, unassigned; (+)) [Example 52B, (+)-5-(6-fluorobenzofuran-2-yl)-3-(6-methoxy-5-(4-methyl-1H-imidazol-1-yl)pyridin-2-yl)-5,6-dihydro-4H-1,2,4-oxadiazine], the half-maximal effective concentration (EC50) stood at 24.6 nM. The same measure, in the same setting: next, `COc1ccc2c(c1)c(C1CON=C(c3ccc(-n4cnc(C)c4)c(OC)n3)N1)cn2C` (single isomer, unassigned; (-)) [Example 250A, (−)-5-(5-methoxy-1-methyl-1H-indol-3-yl)-3-(6-methoxy-5-(4-methyl-1H-imidazol-1-yl)pyridin-2-yl)-5,6-dihydro-4H-1,2,4-oxadiazine]: 202 nM; `COc1nc(C2=NOCC(c3ccc(C)c(Cl)c3)N2)ccc1-n1cnc(C)c1` (single isomer, unassigned; (-)) [Example 218A, (−)-5-(3-chloro-4-methylphenyl)-3-(6-methoxy-5-(4-methyl-1H-imidazol-1-yl)pyridin-2-yl)-5,6-dihydro-4H-1,2,4-oxadiazine]: 1010 nM; `COc1nc(C2=NOCC(c3cc(F)c(Cl)c(F)c3)N2)ccc1-n1cnc(C)c1` (single isomer, unassigned; (+)) [Example 267B, (+)-5-(4-chloro-3,5-difluorophenyl)-3-(6-methoxy-5-(4-methyl-1H-imidazol-1-yl)pyridin-2-yl)-5,6-dihydro-4H-1,2,4-oxadiazine]: 24.9 nM. On the same count and under the same terms, next, `COc1nc(C2=NOCC(c3cn(C)c4ccccc34)N2C)ccc1-n1cnc(C)c1` (single isomer, unassigned; (-)) [Example 200B, (−)-3-(6-methoxy-5-(4-methyl-1H-imidazol-1-yl)pyridin-2-yl)-4-methyl-5-(1-methyl-1H-indol-3-yl)-5,6-dihydro-4H-1,2,4-oxadiazine]: 1290 nM; `COc1cc(C2=NOCC(c3nc4cccc(C)c4o3)N2C)ccc1-n1cnc(C)c1` (single isomer, unassigned; (-)) [Example 212B, (−)-2-(3-(3-methoxy-4-(4-methyl-1H-imidazol-1-yl)phenyl)-4-methyl-5,6-dihydro-4H-1,2,4-oxadiazin-5-yl)-7-methylbenzo[d]oxazole]: > 3000 nM; `COc1nc(C2=NOCC(c3ccc4sc(C)nc4c3)N2)ccc1-n1cnc(C)c1` (single isomer, unassigned; (+)) [Example 215B, (+)-3-(6-methoxy-5-(4-methyl-1H-imidazol-1-yl)pyridin-2-yl)-5-(2-methylbenzo[d]thiazol-5-yl)-5,6-dihydro-4H-1,2,4-oxadiazine]: 52.7 nM. On the same count and under the same terms, next, `COc1nc(C2=NOCC(c3cn(C)c4cccc(F)c34)N2)ccc1-n1cnc(C)c1` (single isomer, unassigned; (+)) [Example 191A, (+)-5-(4-fluoro-1-methyl-1H-indol-3-yl)-3-(6-methoxy-5-(4-methyl-1H-imidazol-1-yl)pyridin-2-yl)-5,6-dihydro-4H-1,2,4-oxadiazine]: 6.9 nM; `COc1nc(C2=NOCC(c3cc4cc(Cl)ccc4o3)N2)ccc1-n1cnc(C)c1` (single isomer, unassigned; (-)) [Example 57A, (−)-5-(5-chlorobenzofuran-2-yl)-3-(6-methoxy-5-(4-methyl-1H-imidazol-1-yl)pyridin-2-yl)-5,6-dihydro-4H-1,2,4-oxadiazine]: 2280 nM; `COc1nc(C2=NOCC(c3cn(C(C)C)c4cccc(F)c34)N2)ccc1-n1cnc(C)c1` (single isomer, unassigned; (-)) [Example 196B, (−)-5-(4-fluoro-1-isopropyl-1H-indol-3-yl)-3-(6-methoxy-5-(4-methyl-1H-imidazol-1-yl)pyridin-2-yl)-5,6-dihydro-4H-1,2,4-oxadiazine]: 220 nM. In the case of `COc1nc(C2=NOCC(c3ccc(OC(F)(F)F)cc3)N2)ccc1-n1cnc(C)c1` (single isomer, unassigned; (-)) [Example 70A, (−)-3-(6-methoxy-5-(4-methyl-1H-imidazol-1-yl)pyridin-2-yl)-5-(4-(trifluoromethoxy)phenyl)-5,6-dihydro-4H-1,2,4-oxadiazine], the 50% effective concentration (EC50) was > 3000 nM. The same measure, in the same setting: for `COc1nc(C2=NOCC(c3cc4cccc(Cl)c4o3)N2)ccc1-n1cnc(C)c1` (single isomer, unassigned; (-)) [Example 64A, (−)-5-(7-chlorobenzofuran-2-yl)-3-(6-methoxy-5-(4-methyl-1H-imidazol-1-yl)pyridin-2-yl)-5,6-dihydro-4H-1,2,4-oxadiazine] the value was 759 nM; for `COc1nc(C2=NOCC(c3oc(C)nc3C)N2)ccc1-n1cnc(C)c1` (single isomer, unassigned; (+)) [Example 161B, (+)-5-(2,4-dimethyloxazol-5-yl)-3-(6-methoxy-5-(4-methyl-1H-imidazol-1-yl)pyridin-2-yl)-5,6-dihydro-4H-1,2,4-oxadiazine], > 3000 nM. Same read-out and setting: for `COc1nc(C2=NOCC(c3cn(C)c4ccccc34)N2)ccc1-n1cnc(C)c1` (single isomer, unassigned; (-)) [Example 189B, (−)-3-(6-methoxy-5-(4-methyl-1H-imidazol-1-yl)pyridin-2-yl)-5-(1-methyl-1H-indol-3-yl)-5,6-dihydro-4H-1,2,4-oxadiazine] the value was 252 nM; for `COc1nc(C2=NOCC(c3cc4ccccc4o3)N2)ccc1-n1cnc(C)n1` (single isomer, unassigned; (-)) [Example 31A, (−)-5-(Benzofuran-2-yl)-3-(6-methoxy-5-(3-methyl-1H-1,2,4-triazol-1-yl)pyridin-2-yl)-5,6-dihydro-4H-1,2,4-oxadiazine], > 3000 nM.
